Legend:
[1] = system: Alternaria solani; experiment: Alternaria solani / tomato / preventive (action against Alternaria on tomato); format: in vivo; settings: preventive spray, tomato plants cv. Roter Gnom, inoculated 2 days after application, assessed after 4 days incubation, read-out: inhibit fungal infestation
Procedure: (§1) Alternaria solani/Tomato/Preventive (Action Against Alternaria on Tomato) 4 weeks old tomato plants cv. Roter Gnom are treated with the formulated test compound in a spray chamber. Two days after application tomato plants are inoculated by spraying a spore suspension on the test plants. After an incubation period of 4 days at 22° C./18° C. and 95% r. h. in a greenhouse the disease incidence is assessed.

[2] = system: Botryotinia fuckeliana (Botrytis cinerea); experiment: Botryotinia fuckeliana (Botrytis cinerea) / tomato / preventive (action against Botrytis on tomato); format: in vivo; settings: preventive spray, tomato plants cv. Roter Gnom, inoculated 2 days after application, assessed after 3 days incubation, read-out: inhibit fungal infestation
Procedure: as §1, with “Botryotinia fuckeliana (Botrytis cinerea)/Tomato/Preventive (Action” for “Alternaria solani/Tomato/Preventive (Action”, “Against Botrytis” for “Against Alternaria”, “of 3” for “of 4”, “at 20°” for “at 22° C./18°”

[3] = system: Puccinia recondite f. sp. tritici; experiment: Puccinia recondite f. sp. tritici / wheat / preventive (action against brown rust on wheat); format: in vivo; settings: preventive spray, wheat plants cv. Arina, inoculated 1 day after application, assessed 11 days after inoculation, read-out: inhibit fungal infestation
Procedure: Puccinia recondite f. sp. tritici/Wheat/Preventive (Action Against Brown Rust on Wheat) 1 week old wheat plants cv. Arina are treated with the formulated test compound in a spray chamber. One day after application wheat plants are inoculated by spraying a spore suspension (1×105 uredospores/ml) on the test plants. After an incubation period of 1 day at 20° C. and 95% r. h. plants are kept for 10 days 20° C./18° C. (day/night) and 60% r. h. in a greenhouse. The disease incidence is assessed 11 days after inoculation.

[4] = system: Magnaporthe qrisea (Pyricularia oryzae); experiment: whole plant or invertebrate; format: in vivo; settings: read-out: inhibit fungal infestation
[5] = system: Pyrenophora teres (Helminthosporium teres); experiment: Pyrenophora teres (Helminthosporium teres) / barley / preventive (action against net blotch on barley); format: in vivo; settings: preventive spray, barley plants cv. Regina, inoculated 2 days after application, assessed after 4 days incubation, read-out: inhibit fungal infestation
Procedure: Pyrenophora teres (Helminthosporium teres)/Barley/Preventive (Action Against Net Blotch on Barley) 1-week-old barley plants cv. Regina are treated with the formulated test compound in a spray chamber. Two days after application barley plants are inoculated by spraying a spore suspension (2.6×10^4 conidia/ml) on the test plants. After an incubation period of 4 days at 20° C. and 95% r. h. the disease incidence is assessed.

[6] = system: Mycosphaerella graminicola (Septoria tritici); experiment: Mycosphaerella graminicola (Septoria tritici) / wheat / preventive (action against Septoria leaf spot on wheat); format: in vivo; settings: Zymoseptoria tritici, preventive spray, wheat plants cv. Riband, inoculated 1 day after application, assessed 16-18 days after inoculation, read-out: inhibits fungal infestation
Procedure: Mycosphaerella graminicola (Septoria tritici)/Wheat/Preventive (Action Against Septoria Leaf Spot on Wheat) 2 weeks old wheat plants cv. Riband are treated with the formulated test compound in a spray chamber. One day after application wheat plants are inoculated by spraying a spore suspension (10^6 conidia/ml) on the test plants. After an incubation period of 1 day at 22° C./21° C. and 95% r. h. plants are kept at 22° C./21° C. and 70% r.h. in a greenhouse. The disease incidence is assessed 16-18 days after inoculation.

[7] = system: Uncinula necator (Erysiphe necator); experiment: Uncinula necator (Erysiphe necator) / grape / preventive (action against powdery mildew on grape); format: in vivo; settings: preventive spray, grape seedlings cv. Gutedel, inoculated 1 day after application, assessed after 7 days incubation, read-out: inhibit fungal infestation
Procedure: Uncinula necator (Erysiphe necator)/Grape/Preventive (Action Against Powdery Mildew on Grape) 5 weeks old grape seedlings cv. Gutedel are treated with the formulated test compound in a spray chamber. One day after application grape plants are inoculated by shaking plants infected with grape powdery mildew above the test plants. After an incubation period of 7 days at 24° C./22° C. and 70% r. h. under a light regime of 14/10 h (light/dark) the disease incidence is assessed.

Compound	inhibition at 200 ppm [1] [%]	inhibition at 200 ppm [2] [%]	inhibition at 200 ppm [3] [%]	inhibition at 200 ppm [4] [%]	inhibition at 200 ppm [5] [%]	inhibition at 200 ppm [6] [%]	inhibition at 200 ppm [7] [%]	melting point [°C]
Cc1nnc(Cl)c(-c2c(F)cccc2Cl)c1-c1ccc(Cl)nc1 [I.a.02, 3-chloro-4-(2-chloro-6-fluoro-phenyl)-5-(6-chloro-pyridin-3-yl)-6-methyl-pyridazine]	≥ 80	≥ 80	≥ 80	≥ 80	≥ 80	≥ 80	≥ 80	–
COc1nnc(C)c(-c2ccc(Cl)nc2)c1-c1c(F)cc(F)cc1F [I.a.12, 4-(6-chloro-pyridin-3-yl)-6-methoxy-3-methyl-5-(2,4,6-trifluoro-phenyl)-pyridazine]	≥ 80	≥ 80	≥ 80	–	≥ 80	–	≥ 80	123 to 124
CCc1nnc(Cl)c(-c2c(F)cc(F)cc2F)c1-c1ccc(Cl)nc1 [I.a.14, 3-chloro-5-(6-chloro-pyridin-3-yl)-6-ethyl-4-(2,4,6-trifluoro-phenyl)-pyridazine]	≥ 80	–	≥ 80	≥ 80	≥ 80	≥ 80	≥ 80	125 to 126
CC(C)c1nnc(Cl)c(-c2c(F)cc(F)cc2F)c1-c1ccc(Cl)nc1 [I.a.17, 3-chloro-5-(6-chloro-pyridin-3-yl)-6-isopropyl-4-(2,4,6-trifluoro-phenyl)-pyridazine]	–	–	–	–	–	–	–	146 to 149
COc1cc(F)c(-c2c(Cl)nnc(C)c2-c2ccc(Cl)nc2)c(F)c1 [I.a.20, 3-chloro-5-(6-chloro-pyridin-3-yl)-4-(2,6-difluoro-4-methoxy-phenyl)-6-methyl-pyridazine]	≥ 80	–	≥ 80	≥ 80	≥ 80	≥ 80	–	148 to 149
Cc1nnc(Cl)c(-c2c(F)cc(F)cc2F)c1-c1cnc(Cl)c(Cl)c1 [I.g.11, 3-chloro-5-(5,6-dichloro-pyridin-3-yl)-6-methyl-4-(2,4,6-trifluoro-phenyl)-pyridazine]	–	–	–	≥ 80	–	–	≥ 80	185 to 188
